For test [1] the following is noted: cited from earlier work.
For test [2], the system named is Puromycin aminonucleoside (PAN) induced nephritis. Type of test: in vivo, Male Sprague-Dawley (SD) rats. The settings on record: PAN-induced nephritis. How it is done: Effect on Puromycin aminonucleoside (PAN) induced nephritis, i.e. PAN induced nephrosis or nephrotic syndrome:
Male Sprague-Dawley (SD) rats weighing 160-180 g were used.
As the nephritis, i.e. nephrosis or nephrotic syndrome, causing substance, PAN (made by Sigma Co., Ltd.) was used. As the test compound, sodium N-acetylneuraminate (made by MECT Corporation) was used.
PAN was intraperitoneally administered in an amount of 80 mg per 1 kg of body weight to rats to cause nephritis, i.e. nephrosis or nephrotic syndrome. Then, the test compound (Groups I, II or III) or physiological saline solution (Group IV) was intraperitoneally administered 3 times a day (morning, noon and evening) for 14 consecutive days immediately after treatment with PAN as follows. As a positive control, methylprednisolone was subcutaneously administered to rats of Group V once a day (noon) for 14 consecutive days immediately after treatment with PAN. Moreover, 3, 6, 9 and 13 days after treatment with PAN, 5 ml water was loaded, and the urine was collected for 6 hours. Fourteen days after treatment with PAN, autopsies were made, the kidneys were extirpated and their moist weights were measured.
Group I: 0.1 mg Sodium N-acetylneuraminate per 1 kg of body weight was administered.
Group II: 0.5 mg Sodium N-acetylneuraminate per 1 kg of body weight was administered.
Group III: 1.0 mg Sodium N-acetylneuraminate per 1 kg of body weight was administered.
Group IV: 2.5 ml Physiological saline solution per 1 kg of body weight was administered.
Group V: 2 mg Methylprednisolone per 1 kg of body weight was administered.
Group VI: Normal rats (no drug was given).
Regarding the results of therapeutic effect for treating renal disease (nephrotic syndrome) of the given NANA compound per Example 1 above, it will be appreciated that the test compound sodium N-acetylneuraminate (Groups I, II and III) was dissolved in physiological saline and intraperitoneally administered, compared to intraperitoneal administration of physiological saline alone (Group IV) and subcutaneous administration of methylprednisolone (Group V).

The subject of test [3] is cilium cells from the human airway and cilia of frog palatine mucosa. The settings on record: expectorant, by inhalation; cited from earlier work.

For the compound `CC(=O)N[C@H]1[C@H]([C@H](O)[C@H](O)CO)OC(O)(C(=O)O)C[C@@H]1O` (some centres unmarked) [N-acetylneuraminic acid], the anti vital action result in test [1] (article [1]) is given as “anti vital action”. The anti allergic action entry in test [1] (article [4], guinea pigs) was “anti allergic action”. Besides, in test [1] (articles [2], [3]), the anti inflammatory action result was “anti inflammatory action”. In addition, the “Effect on renal disease, nephrosis or nephrotic syndrome (in words)” value in test [2] is on record as “has an inhibitory effect on nephritis”. For the same compound, the “Effect on ciliary motion in the airway” value in test [3] is listed as “directly promotes ciliary motion in the airway”.

The values are drawn from patent publication US5393742A, “Preparation for treating renal disease” (MECT Corporation, priority 1990, dated 1995).
